Experimental data published in patent US20150208645A1, “PHYTOSANITARY COMPOSITIONS COMPRISING AN ETHER-AMIDE COMPOUND” (priority 2012, published 2015).

Key:
Format in all cases: physicochemical
[1] = Visual observation at 25° C. of EC formulation (aspect, presence of crystals); settings: 10% Alkamuls RC, remainder the solvent
Procedure: By mixing the ingredients, formulations of various phytosanitary active ingredients of the type emulsifiable concentrate type (EC) are prepared. […] The following tests are conducted: Visual observation at 25° C.—The aspect of the formulation is noted and the presence of crystals is optionally located

[2] = Visual observation at 0° C. after 7 days (test CIPAC MT39); settings: 10% Alkamuls RC, remainder the solvent, 7 days at 0° C.
Procedure: By mixing the ingredients, formulations of various phytosanitary active ingredients of the type emulsifiable concentrate type (EC) are prepared. […] The following tests are conducted: Visual observation at 0° C.—The formulation is placed for 7 days at 0° C. and the aspect of the formulation is noted and the presence of crystals is optionally located (test CIPAC MT39)

[3] = Visual observation at 0° C. with nucleation (crystal of active material introduced, again 7 days at 0° C.); settings: 10% Alkamuls RC, remainder the solvent, seeded with crystal, further 7 days at 0° C.
Procedure: By mixing the ingredients, formulations of various phytosanitary active ingredients of the type emulsifiable concentrate type (EC) are prepared. The formulations comprise: […]
10% by weight of the surfactant Alkamuls® RC, marketed by Rhodia
and, as a solvent, the remainder of the compound of the examples.
The following tests are conducted:
Visual observation at 0° C. with nucleation: A crystal of active material is introduced into the formulation having spent 7 days at 0° C. formulation, and the formulation is again placed for 7 days at 0° C. The aspect of the formulation is noted and the presence of crystals is optionally located.

[4] = EC formulation: Azoxystrobin 25% by weight
[5] = EC formulation: Difenconazole 25% by weight
[6] = EC formulation: Dimethoate 40% by weight
[7] = EC formulation: Oxyfluorfen 22% by weight
[8] = EC formulation: Phenmedipham 16% by weight
[9] = EC formulation: Propanil 36% by weight
[10] = EC formulation: Propoxur 20% by weight
[11] = EC formulation: Tebuconazole 25% by weight
[12] = EC formulation: Trifluralin 40% by weight

SMILES: CCOCCCC(=O)N(C)C [Compound 4]
- Aspect at 25° C. [1, 4]: Crystals
- Aspect at 25° C. [1, 5]: Limpid
- Aspect at 25° C. [1, 6]: Limpid
- Aspect at 25° C. [1, 7]: Cloudy
- Aspect at 25° C. [1, 8]: Limpid
- Aspect at 25° C. [1, 9]: Limpid
- Aspect at 25° C. [1, 10]: Limpid
- Aspect at 25° C. [1, 11]: Limpid
- Aspect at 25° C. [1, 12]: Limpid
- Aspect at 0° C. [2, 4]: Crystals
- Aspect at 0° C. [2, 5]: Limpid
- Aspect at 0° C. [2, 6]: Limpid
- Aspect at 0° C. [2, 7]: Cloudy
- Aspect at 0° C. [2, 8]: Limpid
- Aspect at 0° C. [2, 9]: Limpid
- Aspect at 0° C. [2, 10]: Limpid
- Aspect at 0° C. [2, 11]: Limpid
- Aspect at 0° C. [2, 12]: Limpid
- Aspect at 0° C. with nucleation [3, 4]: Crystals
- Aspect at 0° C. with nucleation [3, 5]: Limpid
- Aspect at 0° C. with nucleation [3, 6]: Limpid
- Aspect at 0° C. with nucleation [3, 7]: Cloudy
- Aspect at 0° C. with nucleation [3, 8]: Limpid
- Aspect at 0° C. with nucleation [3, 9]: Limpid
- Aspect at 0° C. with nucleation [3, 10]: Limpid
- Aspect at 0° C. with nucleation [3, 11]: Limpid
- Aspect at 0° C. with nucleation [3, 12]: Crystals
